The test system of series [1] is MCF-7-derived mamospheres. In words: Formation of MCF-7-derived mamospheres (CSC tumorspheres). The format is cell-based. Conditions: Homo sapiens, MCF7; @10 µM; read-out: Inhibition of tumorsphere formation (%) MCF-7. The method, then:
(§1) (BD Biosciences, Franklin Lakes, NJ, USA). All cells were maintained at 37 °C in a humidified incubator in an atmosphere of 5% CO2, and passaged every 2–3 days.
(§2) Additionally, they were cultured using RPMI media (Gibco/Life Technologies; Grand […]
(§3) Colonospheres, mamospheres and colony formation unit assays. 30.000 cells per well of MCF-7 cells (mamos pheres), HCT-116 cells (colonospheres) and CD34+ cells from patients (colony formation units) were seeded in serum free non- adherent medium or […]
(§4) MethoCult (Stem Cell). […]

In the next series the test system is MCF-7. Description: Cytotoxic effect in breast tumor cell line (MTT). Particulars: Homo sapiens, MCF7, read-out: Viability (%) MCF-7, @10 µM.
Another series concerns HCT-116. In words: Cytotoxic effect in colon tumor cell line (MTT). Particulars: Homo sapiens, HCT-116, read-out: Viability (%) HCT-116, @10 µM.
Series [2] concerns HCT-116-derived colonospheres. Description: Formation of HCT-116-derived colonospheres (CSC tumorspheres). Particulars: Homo sapiens, HCT-116; @10 µM; read-out: Inhibition of tumorsphere formation (%) HCT-116. The class given is cell-based. The procedure: as §1, §2, §3, §4
A short description of series [3]: Plasma protein binding, equilibrium dialysis (RED). The class given is in vitro ADME. Particulars: mouse serum. The method, then: Based on the encouraging results obtained in ex vivo models of AML, we further assessed the therapeutic potential of the new NPM1 inhibitor in vivo. Prior to the evaluation of the compound in an animal model of AML, in vivo pharmacokinetic studies were addressed. Following a single intraperitoneal administration of UCM-13369 at a dose of 25 mg/kg, levels of 200–600 μg/L were detected in mouse peripheral blood up to 6 h (Figure 6A). Plasma protein binding of the compound in mouse serum was measured using an equilibrium dialysis assay, indicating a bound fraction of 83 ± 1%. Next, the efficacy of the compound was evaluated in immunodeficient mice after injection of OCI-AML3-ffLuc-GFP cells as an AML animal model. […]
coupled to a liquid nanochromatography Easy nLC 1200 System (Thermo Scientific).
Once digested, mutant NPM1 C+ C-end sample w as injected into a EASY-Spray™ C18 column, and digestion peptides were separated by using a lineal phase gradi ent (A: 0.1% formic acid in water; B: 20% acetonitrile, 0.1% formic acid in water) for 120 min. Spectra were acquired in DDA m ode, analyzing the 10 higher intensity parent ions in each cycl e.
Proteome Discoverer (Thermo Scientific) was used to align the spectra with the C-end […]
Random exclusion of AIRs was set to 2%. […] Clusters were classifi ed according to H ADDOCK score and stru ctures w er e analyzed with UCSF ChimeraX).10 […]
(In equilibrium dialysis free small molecules cross a membrane that holds back macromolecules.)

Two molecules from PMC11134387, “Cancer-Stem-Cell Phenotype-Guided Discovery of a Microbiota-Inspired Synthetic Compound Targeting NPM1 for Leukemia” (JACS Au, 2024) can be followed below.

In general, inhibition refers to the relative decrease from the control value, in per cent. For orientation: viability means a per cent measure of how many cells are alive, often set against a control. The term melting point denotes the temperature, or range, at which the solid turns liquid. Turning to `COc1ccc([C@H]2Oc3ccccc3[C@@H](CN)[C@@H]2C(=O)NCC2CC2)cc1` [10a], the melting point fell in the range of 175 to 177 °C. Also, the inhibition at 10 µM in series [1] was determined as 4 ± 2%. The viability at 10 µM in the series with MCF-7 turned out to be 89 ± 6%. Moreover, the viability at 10 µM in the series on HCT-116 was found to be 61 ± 8%. The inhibition at 10 µM in series [2] was determined as 2 ± 1%.
As for `CC(C)NCC(O)COc1cccc2ccccc12` (stereo not drawn) [Propranolol, reference compound], the “Plasma protein binding, bound fraction” value in series [3] is recorded as 86±2%.
